# Patent publication US9963431B2, “Use of quinoline derivatives for improving plant yield” (BAYER CROPSCIENCE AG, priority 2013, dated 2018)
# Assays:
# [1] = tested on: Triticum aestivum variety “AC Harvest”; assay: Growth chamber trial, grain yield after post-emergence spray application; assay type: in vivo; conditions: for Relative, %: grain yield relative to UTC = 100; for Relative, % / Difference (%) vs. UTC: 10 gai/ha of each active ingredient (mixtures 10 + 10); for Difference (%) vs. UTC: grain yield; for Grain Yield, g/plant: growth chamber, spray at BBCH 56-61, 10 gai/ha of each active ingredient (mixtures 10 + 10)
# Corn = assay: Field trial, corn grain yield after post emergence application; assay type: in vivo; conditions: for Relative, %: yield relative to UTC = 100
# Text: (§1) The trials have been carried out under natural field conditions (plot trials, 10 sqm, 4 replications) with spray applications using 100-300 l/water per hectare.
# (§2) The applications have been done as post emergence treatments straight (alone, 1 application). The growth stage of the crops species at the time of application are reported in the single tables as well as the dose rates of the active ingredients applied.
# (§3) The trials have been harvested after crops reached the full maturity. After the harvest, the total weights of grains (kernels/seeds) per plot were taken. Afterwards the seed samples were dried to 14% moisture. The freshweight were calculated to a uniform dry weight of 86% for all harvested plots. The results are reported as means over 4 replications per treatment based on 14% moisture resp. 86% dry weight. The time interval (in days) between applications and harvest time are also described in the single tables.
# [2] = tested on: Triiticum aestivum seeds (TRZAS); assay: Seed treatment trial, grain yield of plants from treated seeds; assay type: in vivo, Triticum aestivum
# Spring wheat = assay: Field trial, spring wheat grain yield after post emergence application; assay type: in vivo; conditions: 100 gai/ha; for Relative, %: yield relative to UTC = 100
# Text: as §1, §2, §3
# [3] = tested on: Oil seed rape (spring; Canola); assay: Field trial, oil seed rape grain yield after post emergence application; assay type: in vivo; conditions: 100 gai/ha
# Text: as §1, §2, §3
# [4] = 20 gai/ha, mid-post, harvest 76 days after application
# [5] = 100 gai/ha, GS 33, harvest 84 days after application
# [6] = grain yield relative to UTC = 100, 1 gai/kg seed
# [7] = GS 39, harvest 80 days after application
# [8] = GS 55, harvest 72 days after application
# [9] = 250 gai/ha, mid-post, harvest 76 days after application
SMILES,"Relative, % [1] [%]",Difference (%) vs. UTC [1],"Grain Yield, g/plant [1] [g/plant]",Difference (%) vs. UTC ([2]; 1 gai/kg seed),"Grain Yield, g/plant ([2]; 1 gai/kg seed) [g/plant]","Relative, % [2, 6] [%]",further results
"CO/C=C(/C(=O)OC)c1ccccc1Oc1cc(Oc2ccccc2C#N)ncn1 [Azoxystrobin, azoxystrobin]",115.1,+15.1%,1.22,,,,
"CCCCCC(C)OC(=O)COc1ccc(Cl)c2cccnc12 (stereo not drawn) [CQM, 1-methylhexyl (5-chloro-8-quinolinoxy)acetate]",103.7,+3.7%,1.10,+9.4%,1.97,109.4,"Difference (%) vs. UTC (Corn; [4]): +2.4%; Yield, dt/ha (Corn; [4]): 94 dt/ha; Difference (%) vs. UTC (Corn; [5]): +9.0%; Yield, dt/ha (Corn; 100 gai/ha, post emergence, stem elongation stage (GS 33), harvest 84 days after application): 52.7 dt/ha; Relative, % (Corn; [4]): 102.4%; Relative, % (Corn; [5]): 108.0%; Difference (%) vs. UTC ([2]; 0.5 gai/kg seed): +14.4%; Grain Yield, g/plant ([2]; 0.5 gai/kg seed): 2.06 g/plant; Relative, % ([2]; grain yield relative to UTC = 100, 0.5 gai/kg seed): 114.4%; Difference (%) vs. UTC (Spring wheat; [7]): +9.0%; Difference (%) vs. UTC (Spring wheat; [8]): +7.0%; Yield, dt/ha (Spring wheat; late post emergence, ear heading (GS 55), harvest 72 days after application): 40.2 dt/ha; Yield, dt/ha (Spring wheat; post emergence, flag leaf stage (GS 39), harvest 80 days after application): 41.7 dt/ha; Relative, % (Spring wheat; [7]): 109.0%; Relative, % (Spring wheat; [8]): 107.0%; Difference (%) vs. UTC ([3]; GS 60, harvest 49 days after application): +4.0%; Yield, dt/ha ([3]; late post emergence, begin of flowering (GS 60), harvest 49 days after application): 18.4 dt/ha; Relative, % ([3]; yield relative to UTC = 100, GS 60, harvest 49 days after application): 104.0%"
"CN/C(=N\[N+](=O)[O-])NCc1cnc(Cl)s1 [Clothianidin, clothianidin]",112.3,+12.3%,1.19,,,,
"CC1COC(Cn2cncn2)(c2ccc(Oc3ccc(Cl)cc3)cc2Cl)O1 (stereo not drawn) [Difenoconazole, difenoconazole]",96.2,−3.8%,1.02,−10%,1.62,90,
"N#Cc1nn(-c2c(Cl)cc(C(F)(F)F)cc2Cl)c(N)c1[S+]([O-])C(F)(F)F (stereo not drawn) [Fipronil, fipronil]",112.3,+12.3%,1.19,,,,
"N#Cc1c[nH]cc1-c1cccc2c1OC(F)(F)O2 [Fludioxonil, fludioxonil]",,,,+14.4%,2.06,114.4,
"OC(Cc1ccccc1Cl)(Cn1nc[nH]c1=S)C1(Cl)CC1 (stereo not drawn) [Prothioconazole, prothioconazole]",96.2,−3.8%,1.02,,,,
"COC(=O)N(OC)c1ccccc1COc1ccn(-c2ccc(Cl)cc2)n1 [Pyraclostrobin, pyraclostrobin]",117.0,+17.0%,1.24,,,,"Difference (%) vs. UTC (Corn; [9]): −15.2%; Yield, dt/ha (Corn; [9]): 78 dt/ha; Relative, % (Corn; [9]): 84.8%"
"CON=C(C(=O)OC)c1ccccc1CON=C(C)c1cccc(C(F)(F)F)c1 [Trifloxystrobin, trifloxystrobin]",105.7,+5.7%,1.12,,,,
"O=[N+]([O-])NC1=NCCN1Cc1ccc(Cl)nc1 [lmidacloprid, imidacloprid]",107.5,+7.5%,1.14,,,,
COCC(=O)N(c1c(C)cccc1C)C(C)C(=O)OC (stereo not drawn) [metalaxyl],107.5,+7.5%,1.14,−15.6%,1.52,84.4,
